Consider 4 compounds from patent US4431809A, “Antibiotic A-33853 derivatives” (Eli Lilly and Company, priority 1982, dated 1984).

Values after ≈ are worked out from the molar mass of the structure shown. Read-outs that look alike come from different tables or passages of the source. Some results are limits rather than exact numbers.

The test system of data set [1] is Haemophilus influenzae C.L. Format: cell-based. The following applies: agar-dilution, 24 hours.
Data set [2] can be described thus: Solubility. The class given is physicochemical.
In data set [3] the test system is Streptococcus sp. Group D 9960. Format: cell-based. The following applies: agar-dilution, 24 hours.
Data set [4] has as its system Haemophilus influenzae 76. The class given is cell-based. The following applies: agar-dilution, 24 hours.
For data set [5], the system named is Streptococcus sp. Group D X66. The class given is cell-based.
In data set [6] the test system is Streptococcus pyogenes C203. The class given is cell-based. The following applies: agar-dilution, 24 hours.
Data set [7] has as its system Staphylococcus epidermidis 222. Format: cell-based. The following applies: agar-dilution, 24 hours.
Data set [8] concerns Staphylococcus epidermidis EPI1. Format: cell-based. The following applies: EPI1, 24 h.
For data set [9], the system named is Staphylococcus aureus V41. Format: cell-based.
Data set [10] concerns Streptococcus pneumoniae Park I. The class given is cell-based. The following applies: 24 h.
Data set [11] is described as follows: physchem. The following applies: 66% dimethylformamide in water.
Data set [12] deals with Staphylococcus aureus X400. The class given is cell-based. The following applies: agar-dilution, 24 hours.
Data set [13] deals with Staphylococcus aureus 3130. Kind of data set: Disc-plate screening. Format: cell-based. The following applies: benzylpenicillin resistant, methicillin resistant, read-out: Zone Diameter. How it is done:
(§1) Agar plates, inoculated with the test organism, were used; 6 mm. discs (0.02 ml. capacity) were saturated from log 2 dilutions of the antibiotic solution. Disc content was 1/5 or 1/50 of the concentration of the solution used, i.e., disc content of […] 30 μg. was obtained from a solution of 1500 μg./ml. concentration.

Data set [14] has as its system Streptococcus pyogenes C203. Kind of data set: Disc-plate screening. The following applies: read-out: Zone Diameter. Format: cell-based. As to the method: as §1
For data set [15], the system named is Staphylococcus aureus 3074. Kind of data set: Disc-plate screening. The class given is cell-based. The following applies: benzylpenicillin resistant, read-out: Zone Diameter. As to the method: as §1
The subject of data set [16] is Staphylococcus aureus 3055. Kind of data set: Disc-plate screening. The class given is cell-based. The following applies: benzylpenicillin-susceptible, read-out: Zone Diameter. How it is done: as §1
Data set [17] relates to Mycoplasma gallisepticum. Kind of data set: In vitro MIC, bacteria pathogenic to animals. The following applies: Mycoplasmoides gallisepticum. Format: cell-based. As to the method: (§2) Antibiotic A-33853 was also tested in vitro to determine the MIC in μg./ml. against a number of bacterial organisms pathogenic to animals.
Data set [18] has as its system Pseudomonas (animal). Kind of data set: In vitro MIC, bacteria pathogenic to animals. Format: cell-based. How it is done:
as §2

Data set [19] deals with Pasteurella multocida (turkey). Kind of data set: In vitro MIC, bacteria pathogenic to animals. The class given is cell-based. How it is done:
as §2

Data set [20] concerns Streptococcus sp. Kind of data set: In vitro MIC, bacteria pathogenic to animals. The class given is cell-based. How it is done: as §2
For data set [21], the system named is Pasteurella multocida (bovine). Kind of data set: In vitro MIC, bacteria pathogenic to animals. Format: cell-based. How it is done: as §2
The subject of data set [22] is Aeromonas liquefaciens. Kind of data set: In vitro MIC, bacteria pathogenic to animals. The class given is cell-based. The following applies: Aeromonas hydrophila. As to the method:
as §2

Data set [23] relates to Bordetella bronchiseptica. Kind of data set: In vitro MIC, bacteria pathogenic to animals. The class given is cell-based. How it is done:
as §2

The subject of data set [24] is Mycoplasma hyopneumoniae. Kind of data set: In vitro MIC, bacteria pathogenic to animals. Format: cell-based. The following applies: Mesomycoplasma hyopneumoniae. As to the method:
as §2

Data set [25] concerns Mycoplasma hyorhinis. Kind of data set: In vitro MIC, bacteria pathogenic to animals. Format: cell-based. As to the method: as §2
For data set [26], the system named is Staphylococcus sp. Kind of data set: In vitro MIC, bacteria pathogenic to animals. Format: cell-based. As to the method: as §2
For data set [27], the system named is Escherichia coli. Kind of data set: In vitro MIC, bacteria pathogenic to animals. The class given is cell-based. How it is done: as §2
Data set [28] deals with Mycoplasma synoviae. Kind of data set: In vitro MIC, bacteria pathogenic to animals. The following applies: Mycoplasmopsis synoviae. Format: cell-based. How it is done:
as §2

For data set [29], the system named is Pseudomonas (fish). Kind of data set: In vitro MIC, bacteria pathogenic to animals. The class given is cell-based. As to the method: as §2
The test system of data set [30] is Salmonella dublin. Kind of data set: In vitro MIC, bacteria pathogenic to animals. The following applies: Salmonella enterica. Format: cell-based. As to the method:
as §2

Data set [31] relates to mosquito. Kind of data set: Mosquito larvicide activity. The class given is in vivo. The following applies: in words.
In data set [32] the test system is Maryland B influenza virus. Kind of data set: In vitro antiviral activity, Maryland B influenza virus. The class given is cell-based. The following applies: in words.
Data set [33] deals with Eimeria tenella. Kind of data set: In vitro activity against Eimeria tenella. Format: cell-based. The following applies: in words.
For data set [34], the system named is Salmonella typhosa SA12. Kind of data set: Agar-dilution screening (ICS). The following applies: Salmonella enterica.
Data set [35] deals with Staphylococcus aureus 3055. Kind of data set: Agar-dilution screening (ICS). The following applies: benzylpenicillin-susceptible. The class given is cell-based.
Data set [36] concerns Trichomonas vaginalis. Kind of data set: Tube-dilution test, Trichomonas vaginalis. Format: cell-based. The following applies: for MIC: Trichomonas vaginalis, tube-dilution test, T. vaginalis, read-out: minimal inhibitory concentration (MIC); for in vitro activity against Trichomonas vaginalis: in words.
A short description of data set [37]: Acute toxicity in the mouse, IP. The following applies: in vivo.
Data set [38] has as its system Staphylococcus aureus 3074. Kind of data set: Agar-dilution screening (ICS). Format: cell-based. The following applies: benzylpenicillin resistant.
For data set [39] the following is noted: 66 percent aqueous dimethylformamide.
Setting [40] is: alkaline solutions and most organic solvents.

Usually solubility stands for the dissolved amount per volume that the medium holds. A word on the pKa: it is the negative logarithm of the acid dissociation constant. As to `CC(=O)Oc1cccnc1C(=O)N(C(C)=O)c1c(OC(C)=O)cccc1-c1nc2c(C(=O)O)cccc2o1` [triacetyl derivative], the MIC was 4 µg/mL (≈ 7.73 µM) in [1]; more than 128 µg/mL in data set [3]; 64 µg/mL (≈ 124 µM) in data set [4]; more than 128 µg/mL in data set [5] (agar-dilution, 24 hours, read-out: MIC); 8 µg/mL (≈ 15.5 µM) in [6]; 4 µg/mL (≈ 7.73 µM) in data set [7]. The MIC in data set [8] (read-out: MIC) was found to be 16 µg/mL (≈ 30.9 µM); in data set [9] (V41, agar-dilution, 24 hours, read-out: MIC), 32 µg/mL (≈ 61.8 µM); in data set [10], 32 µg/mL (≈ 61.8 µM); in data set [12], 64 µg/mL (≈ 124 µM). The solubility entry in data set [2] (setting [40]) is “soluble”; in [2] (hydrocarbon solvents and water), “insoluble”. The compound also yielded a pKa in data set [11] (pH 4.7, pKa) of 6.85.
Usually LD50 stands for the dose at which mortality reaches 50%. For `O=C(Nc1c(O)cccc1-c1nc2c(C(=O)O)cccc2o1)c1ncccc1O` [A-33853, 2-[3-hydroxy-2-[[(3-hydroxy-2-pyridinyl)carbonyl]amino]phenyl]-4-benzoxazolecarboxylic acid], the zone of inhibition at 30 µg/disc in data set [13] (30 μg./disc) came to 13.2 mm; in data set [14] (30 μg./disc) it was 0 mm; in [15] (30 μg./disc), 10.4 mm; in [16] (30 μg./disc) it was 10 mm. Besides, the zone of inhibition at 300 µg/disc in data set [13] (300 μg./disc) turned out to be 13.4 mm; in data set [14] (300 μg./disc), 8 mm; in [15] (300 μg./disc) it was 11.6 mm; in [16] (300 μg./disc) it was 11 mm. Besides, the solubility result in data set [2] (acetone, methanol, ethyl acetate, tetrahydrofuran, chloroform, and water) is “less soluble”; in data set [2] (organic solvent or mixture, soluble in dimethylsulfoxide, pyridine, and 0.1 N sodium hydroxide, read-out: solubility), not below 5000 µg/mL. The MIC in data set [17] is 1.56 µg/mL (≈ 3.99 µM); in [18], more than 50 µg/mL; in data set [19], 6.25 µg/mL (≈ 16 µM); in data set [20], 6.25 µg/mL (≈ 16 µM); in data set [21], 1.56 µg/mL (≈ 3.99 µM); in data set [22], 3.12 µg/mL (≈ 7.97 µM). Also, the MIC in data set [23] is more than 50 µg/mL; in [24], less than 0.78 µg/mL; in data set [25], 1.56 µg/mL (≈ 3.99 µM); in data set [26] it was 3.12 µg/mL (≈ 7.97 µM); in [27], more than 50 µg/mL; in data set [28] it was 1.56 µg/mL (≈ 3.99 µM). The MIC was 50 µg/mL (≈ 128 µM) in data set [29]; more than 50 µg/mL in data set [30]; 2 µg/mL (≈ 5.11 µM) in [34]; 2 µg/mL (≈ 5.11 µM) in [35]; less than 0.975 µg/mL in [36]; 2 µg/mL (≈ 5.11 µM) in data set [38]. Further, the mosquito larvicide activity result in [31] is on record as “active as a mosquito larvicide”. Also, the “growth inhibition / activity in vitro” value in [32] is recorded as “inhibits the growth in vitro”. The “in vitro activity against Eimeria tenella” value in data set [33] is listed as “active in vitro”. For the same compound, the “in vitro activity against Trichomonas vaginalis” value in data set [36] was “active in vitro”. The same compound gave an LD50 in [37] of more than 300 mg/kg. Moreover, the pKa in data set [11] (pH 5, pKa (first titratable group)) was approximately 7.25; in [11] (pH 5, pKa (second titratable group)) it was approximately 10; in data set [11] (pH 5, pKa (third titratable group)) it was approximately 12.2.
Take `CC(=O)Oc1cccnc1C(=O)Nc1c(OC(C)=O)cccc1-c1nc2c(C(=O)O)cccc2o1` [diacetyl derivative]: the MIC in data set [1] is 4 µg/mL (≈ 8.41 µM); in [3], more than 128 µg/mL; in data set [4], 64 µg/mL (≈ 135 µM); in [5] (24 h), more than 128 µg/mL; in data set [6], 8 µg/mL (≈ 16.8 µM); in [7], 4 µg/mL (≈ 8.41 µM). Besides, the MIC in [8] came to 8 µg/mL (≈ 16.8 µM); in [9] (V41, 24 h) it was 16 µg/mL (≈ 33.7 µM); in data set [10], 8 µg/mL (≈ 16.8 µM); in data set [12] it was 16 µg/mL (≈ 33.7 µM). Besides, the solubility entry in data set [2] (setting [40]) is recorded as “soluble”; in [2] (hydrocarbon solvents and water), “insoluble”. Further, in data set [11] (pH 4.92, pKa), the pKa is 6.8.
For `CC(=O)OC(=O)c1cccc2oc(-c3cccc(OC(C)=O)c3N(C(C)=O)C(=O)c3ncccc3OC(C)=O)nc12` [tetraacetyl A-33853, 2-[2-[acetyl[[3-(acetyloxy)-2-pyridinyl]carbonyl]amino]-3-(acetyloxy)phenyl]-4-benzoxazolecarboxylic acid, anhydride with acetic acid], the titratable groups result in data set [39] is listed as “no titratable groups”. Besides, the solubility entry in data set [2] (acetone, methanol, ethyl acetate, tetrahydrofuran, water, dimethyl sulfoxide, 0.1 N aqueous NaOH, 0.1 N aqueous HCl) was “insoluble, or only sparingly soluble”. The solubility in data set [2] (organic solvent or mixture, soluble in pyridine and chloroform, read-out: solubility) was not below 1000 µg/mL. For the same compound, in data set [32], the “growth inhibition / activity in vitro” value was “active in vitro”. In [36], the MIC was 125 µg/mL (≈ 223 µM) and the “in vitro activity against Trichomonas vaginalis” value is “active in vitro”.
